Data: patent US10744137B1, “Liquisolid tablet containing combined dose of tadalafil and dapoxetine” (King Abdulaziz University, priority 2020, dated 2020)
≈ marks a conversion by molar mass, not a printed value. Read-outs that look alike come from different tables or passages of the source.

Columns and labels:
[1] = DPX, low and variable (El-Say et al., 2019); cited from earlier work
[2] = Solubility studies of TDL and DPX in nonvolatile solvents and distilled water; assay type: physicochemical
Procedure: Solubility studies of TDL and DPX were determined in various nonvolatile solvents separately as described previously with full details in the literature (Al-Subaie et al., 2015)(Aldawsari et al., 2018)(El-Say et al., 2019). The solvents used in this study were Span® 80, Tween® 80, PEG 400, PEG 200, Labrasol®, Kolliphor® EL, glycerin and distilled water were used.

SMILES	oral bioavailability [1]	solubility ([2]; in distilled water, read-out: Solubility of DPX) [mg/mL]	solubility ([2]; oil or lipid, in Labrasol, read-out: Solubility of DPX) [mg/mL]	solubility ([2]; in distilled water, read-out: Solubility of TDL) [mg/mL]	solubility ([2]; organic solvent or mixture, in PEG 200, read-out: Solubility of TDL) [mg/mL]
CN(C)[C@@H](CCOc1cccc2ccccc12)c1ccccc1 [DPX, dapoxetine]	15-76%	35.6 (≈ 117 mM)	57.7 (≈ 189 mM)		
CN1CC(=O)N2[C@H](c3ccc4c(c3)OCO4)c3[nH]c4ccccc4c3C[C@@H]2C1=O [TDL, tadalafil]				0.049 (≈ 0.126 mM)	10.1 (≈ 25.9 mM)
